# Test results as given in US20110015080A1, “Solution-based methods for RNA expression profiling” (MASSACHUSETTS INSTITUTE OF TECHNOLOGY, priority 2005, published 2011).
# Where “and” joins values, the source holds several entries; their conditions need not be identical. Identical values can stand only once.
# Test system: HL60 (human promyelocytic leukemia) cells
# Assay: LMA-FlexMAP bead-based gene expression signature analysis of total RNA from HL60 cells treated with tretinoin or DMSO (ninety transcripts); on NM 000884 LUA#81 FlexMAP signal: test concentration or dose not given here; on NM 001469 LUA#79 FlexMAP signal: test concentration or dose not given here
structure (smiles),measurement,setting,value
"CC1=C(/C=C/C(C)=C/C=C/C(C)=C/C(=O)O)C(C)(C)CCC1 [tretinoin, all-trans-retinoic acid]",ACTB LUA#91 FlexMAP signal,"Experiment 1, tretinoin-treated HL60, transcript ACTB, replicate columns",2313 and 2609 and 1929 and 2483 and 818 and 2425.5 and 2563 and 1173 and 2347 and 2296.5
same,GAPDH_3 LUA#95 FlexMAP signal,"Experiment 1, tretinoin-treated HL60, transcript GAPDH_3, replicate columns",2580 and 2982 and 2428 and 2979 and 1102.5 and 2911 and 2912 and 1645 and 2823 and 2559
same,GAPDH_5 LUA#93 FlexMAP signal,"Experiment 1, tretinoin-treated HL60, transcript GAPDH_5, replicate columns",1299 and 1629 and 998.5 and 1419 and 378.5 and 1433 and 1505.5 and 632 and 1469 and 1347
same,GAPDH_M LUA#94 FlexMAP signal,"Experiment 1, tretinoin-treated HL60, transcript GAPDH_M, replicate columns",1360.5 and 1575 and 1134 and 1511.5 and 460 and 1520 and 1502 and 698.5 and 1462 and 1334
same,NM_000147 LUA#29 FlexMAP signal,"Experiment 1, tretinoin-treated HL60, transcript NM_000147, replicate columns",764 and 894 and 573 and 861 and 195.5 and 822.5 and 850 and 302 and 783 and 763
same,NM_000211 LUA#39 FlexMAP signal,"Experiment 1, tretinoin-treated HL60, transcript NM_000211, replicate columns",1294.5 and 1488 and 1125 and 1420 and 454.5 and 1349 and 1366.5 and 682 and 1361 and 1315
same,NM_000250 LUA#87 FlexMAP signal,"Experiment 1, tretinoin-treated HL60, transcript NM_000250, replicate columns",164 and 198 and 194 and 74 and 177 and 187 and 95.5 and 173 and 166
same,NM_000414 LUA#22 FlexMAP signal,"Experiment 1, tretinoin-treated HL60, transcript NM_000414, replicate columns",372.5 and 470.5 and 270 and 442 and 100 and 408.5 and 415 and 145 and 402.5 and 373
same,NM_000433 LUA#28 FlexMAP signal,"Experiment 1, tretinoin-treated HL60, transcript NM_000433, replicate columns",536.5 and 647 and 442.5 and 640 and 144 and 605 and 622 and 228.5 and 564 and 532
same,NM_000584 LUA#30 FlexMAP signal,"Experiment 1, tretinoin-treated HL60, transcript NM_000584, replicate columns",1765 and 2115 and 1464 and 1938.5 and 476 and 1981.5 and 1945 and 799.5 and 1938 and 1717
same,NM_000884 LUA#81 FlexMAP signal,"Experiment 1, tretinoin-treated HL60, transcript NM_000884, replicate columns",799 (2×) and 946 and 676 and 871.5 and 250 and 871 and 865 and 389 and 830.5
same,NM_001034 LUA#67 FlexMAP signal,"Experiment 1, tretinoin-treated HL60, transcript NM_001034, replicate columns",191 and 243 and 157 and 225 and 73 and 209 and 212.5 and 92 and 219 and 185
same,NM_001101 LUA#34 FlexMAP signal,"Experiment 1, tretinoin-treated HL60, transcript NM_001101, replicate columns",2722 and 3119.5 and 2773 and 2969.5 and 1490 and 2968.5 and 2890 and 1977 and 2893.5 and 2694
same,NM_001469 LUA#79 FlexMAP signal,"Experiment 1, tretinoin-treated HL60, transcript NM_001469, replicate columns",1076 and 1221 and 809 and 1179 (2×) and 284 and 1191 and 463 and 1140.5 and 1077
same,NM_001498 LUA#18 FlexMAP signal,"Experiment 1, tretinoin-treated HL60, transcript NM_001498, replicate columns",361 and 424 and 279 and 402 and 96 and 374 and 412 and 140 and 360 and 335.5
same,NM_001684 LUA#23 FlexMAP signal,"Experiment 1, tretinoin-treated HL60, transcript NM_001684, replicate columns",69 and 68 and 54 and 66.5 and 41 and 65 (2×) and 43 and 61 and 63
same,NM_001948 LUA#84 FlexMAP signal,"Experiment 1, tretinoin-treated HL60, transcript NM_001948, replicate columns",58 and 75 and 61 and 73 and 47 and 63 and 71 and 51 and 76 and 66
same,NM_002166 LUA#25 FlexMAP signal,"Experiment 1, tretinoin-treated HL60, transcript NM_002166, replicate columns",154 and 180 and 124.5 and 159.5 and 61 and 168 and 159 and 79.5 and 156.5 and 152
same,NM_002467 LUA#90 FlexMAP signal,"Experiment 1, tretinoin-treated HL60, transcript NM_002467, replicate columns",1030 and 801 and 702 and 736 and 256 and 792.5 and 842.5 and 399 and 957 and 976
same,NM_002468 LUA#40 FlexMAP signal,"Experiment 1, tretinoin-treated HL60, transcript NM_002468, replicate columns",418 and 492 and 325 and 448.5 and 121 and 496.5 and 473 and 174.5 and 426.5 and 399.5
same,NM_002539 LUA#74 FlexMAP signal,"Experiment 1, tretinoin-treated HL60, transcript NM_002539, replicate columns",276 and 362 and 231 and 326 and 85 and 313 and 314.5 and 131 and 300 and 281.5
same,NM_002624 LUA#36 FlexMAP signal,"Experiment 1, tretinoin-treated HL60, transcript NM_002624, replicate columns",1288 and 1492.5 and 1267 and 1418 and 576 and 1447 and 1402 and 820 and 1224.5
same,NM_002664 LUA#38 FlexMAP signal,"Experiment 1, tretinoin-treated HL60, transcript NM_002664, replicate columns",2325 and 2761 and 2157 and 2552 and 892 and 2527 and 2504 and 1337 and 2394 and 2330
same,NM_002970 LUA#42 FlexMAP signal,"Experiment 1, tretinoin-treated HL60, transcript NM_002970, replicate columns",1455 and 1683.5 and 1181 and 1595 and 400 and 1478 and 1584 and 651 and 1503 and 1459
same,NM_002982 LUA#45 FlexMAP signal,"Experiment 1, tretinoin-treated HL60, transcript NM_002982, replicate columns",3488 and 3786 and 3231 and 3797 and 1738 and 3852 and 3752 and 2466 and 3667 and 3451
same,NM_003132 LUA#68 FlexMAP signal,"Experiment 1, tretinoin-treated HL60, transcript NM_003132, replicate columns",488 (2×) and 596 and 410 and 540 and 148 and 523 and 517 and 212 and 467.5
same,NM_003172 LUA#19 FlexMAP signal,"Experiment 1, tretinoin-treated HL60, transcript NM_003172, replicate columns",243 and 276 and 208 and 286 and 86 and 264 and 257 and 121 and 260 and 235
same,NM_003332 LUA#43 FlexMAP signal,"Experiment 1, tretinoin-treated HL60, transcript NM_003332, replicate columns",2387.5 and 2641 and 2219 and 2571.5 and 1100 and 2688.5 and 2573.5 and 1470 and 2528 and 2325
same,NM_003581 LUA#62 FlexMAP signal,"Experiment 1, tretinoin-treated HL60, transcript NM_003581, replicate columns",53 and 57 and 147 and 80 and 50 (2×) and 65 and 52 and 43 and 42
same,NM_003644 LUA#17 FlexMAP signal,"Experiment 1, tretinoin-treated HL60, transcript NM_003644, replicate columns",282 and 272 and 195.5 and 252 and 105 and 266.5 and 259 and 142 and 271.5 and 260
same,NM_003752 LUA#82 FlexMAP signal,"Experiment 1, tretinoin-treated HL60, transcript NM_003752, replicate columns",130.5 and 145.5 and 114 and 144.5 and 71 and 128.5 and 142 and 94 and 137.5 and 124.5
same,NM_003879 LUA#24 FlexMAP signal,"Experiment 1, tretinoin-treated HL60, transcript NM_003879, replicate columns",72.5 and 77.5 and 57 and 80 (2×) and 41 and 71 and 76 and 53 and 67
same,NM_004079 LUA#21 FlexMAP signal,"Experiment 1, tretinoin-treated HL60, transcript NM_004079, replicate columns",113 and 129 and 93 and 124.5 and 55 and 127 and 122 and 70 and 125.5 and 99.5
same,NM_004095 LUA#59 FlexMAP signal,"Experiment 1, tretinoin-treated HL60, transcript NM_004095, replicate columns",203 and 247 and 148 and 227 and 78 and 212 (2×) and 101 and 214.5 and 194.5
same,NM_004106 LUA#44 FlexMAP signal,"Experiment 1, tretinoin-treated HL60, transcript NM_004106, replicate columns",1187 and 1452 and 994 and 1303 and 373 and 1308 and 1315 and 576.5 and 1274.5 and 1218
same,NM_004134 LUA#76 FlexMAP signal,"Experiment 1, tretinoin-treated HL60, transcript NM_004134, replicate columns",278 and 318 and 207 and 277 and 83.5 and 292 and 306 and 111 and 280 and 266.5
same,NM_004152 LUA#31 FlexMAP signal,"Experiment 1, tretinoin-treated HL60, transcript NM_004152, replicate columns",1944 and 2194 and 1662 and 2073 and 775 and 2127.5 and 2117 and 1110 and 2045 and 1823
same,NM_004526 LUA#88 FlexMAP signal,"Experiment 1, tretinoin-treated HL60, transcript NM_004526, replicate columns",192 and 223 and 150 and 213 and 77 and 208 and 192.5 and 101 and 206.5 and 182.5
same,NM_004602 LUA#32 FlexMAP signal,"Experiment 1, tretinoin-treated HL60, transcript NM_004602, replicate columns",215.5 and 258 and 182 and 239 and 88 and 232.5 and 227.5 and 113.5 and 224 and 212
same,NM_004723 LUA#20 FlexMAP signal,"Experiment 1, tretinoin-treated HL60, transcript NM_004723, replicate columns",380 and 446 and 318 and 394 and 127 and 418.5 and 388.5 and 184 and 400 and 363.5
same,NM_004741 LUA#89 FlexMAP signal,"Experiment 1, tretinoin-treated HL60, transcript NM_004741, replicate columns",205 and 208 and 168 and 215 and 100 and 204 and 198 and 116 and 214 and 204.5
same,NM_004759 LUA#37 FlexMAP signal,"Experiment 1, tretinoin-treated HL60, transcript NM_004759, replicate columns",116 and 149.5 and 148 and 139.5 and 53 and 128 and 141 and 67 and 134 and 103
same,NM_005008 LUA#77 FlexMAP signal,"Experiment 1, tretinoin-treated HL60, transcript NM_005008, replicate columns",343 and 416 and 307 and 392 and 123 and 401 and 382.5 and 167 and 372 and 338.5
same,NM_005375 LUA#86 FlexMAP signal,"Experiment 1, tretinoin-treated HL60, transcript NM_005375, replicate columns",780.5 and 638 and 523 and 594.5 and 238 and 631.5 and 617 and 351 and 734 and 717
same,NM_005566 LUA#85 FlexMAP signal,"Experiment 1, tretinoin-treated HL60, transcript NM_005566, replicate columns",540 and 632.5 and 583.5 and 642 and 150 and 607 and 596 and 219 and 577 and 523.5
same,NM_005914 LUA#60 FlexMAP signal,"Experiment 1, tretinoin-treated HL60, transcript NM_005914, replicate columns",881.5 and 948 and 566.5 and 843 and 209 and 866 and 848.5 and 351 and 885 and 795
same,NM_005915 LUA#72 FlexMAP signal,"Experiment 1, tretinoin-treated HL60, transcript NM_005915, replicate columns",44 (2×) and 59 and 39 and 54 and 34.5 and 56 and 41 and 51 and 47
